Assay results taken from patent US20140342043A1, “Rebaudioside Sweetener Compositions and Food Products Sweetened with Same” (PepsiCo, Inc., priority 2013, published 2014).
Residues, ends and D or L forms follow the SMILES beside them.

Key:
[1] = tested on: 14 expertly trained panelists; experiment: Sensory studies of sweetness with acidified water samples; format: in vivo, human; details: for Sweetness (score): acidified water, Aspartame 400 ppm, scale 0 to 15, 15 being the sweetest
Procedure: Sensory studies with two sets of acidified water samples were performed and are described below, where Set 1: HFCS-55 11.7%; Aspartame 400 ppm, and rebaudioside M 400 ppm; and Set 2: Aspartame 400 ppm, Rebaudioside M 400 ppm and Rebaudioside D 400 ppm. The sensory studies were conducted by 14 expertly trained panelists with two evaluations performed for each set. The scale for scoring was 0 to 15, with 15 being the sweetest. The letters shown in Table 2 and Table 3, along with the numerical sweetness values will be understood by those skilled in the art to designate whether or not a statistically significant difference in taste was found. Thus, it can be seen in Table 1 that for Set 1 a statistically significant difference was found between the three sweeteners. It can be seen in Table 2 that for Set 2 a statistically significant difference in sweetness was found for rebaudioside M versus the other two sweeteners. More generally, it can be seen that for both Set 1 and Set 2, rebaudioside M had noticeably higher sweetness values.

[2] = Taste comparison of rebaudioside M with other potent sweeteners in beverages; format: in vivo
[3] = Differential scanning calorimetry (FIG. 4); format: physicochemical; details: second DSC run showing little change
Text: FIG. 4 is a differential scanning calorimetry graph for rebaudioside M.

[4] = Solubility in cola syrup preparation; format: physicochemical; details: cola syrup for 1-plus-5 throw
Procedure: Samples of finished ready-to-drink cola beverage were prepared for each of three different formulations. The formulations were identical except that syrup variant 1 used rebaudioside A as the sweetener, syrup variant 2 used rebaudioside D as the sweetener, and syrup variant 3 used rebaudioside M as the sweetener in accordance with one aspect of the invention of the present disclosure. For the ready-to-drink cola beverage samples of formulation variant 1 and formulation variant 3, 2.0 liters of syrup were prepared suitable for use in a 1-plus-5 throw with carbonated water to make the corresponding ready-to-drink cola beverage samples. To prepare variant 1 (comprising rebaudioside A as the sweetener) and variant 3 (comprising rebaudioside M as the sweetener), the ingredients listed in Table 4, below, were added (in the sequence listed) to approximately 1.0-1.5 liter purified water with stirring. Purified water was then added until the syrup was 2 liters in volume. Then 50 mL portions of the syrup were added respectively to 250 mL portions of carbonated water, i.e., a “1-plus-5 throw” to obtain samples of finished ready-to-drink cola beverage corresponding to each of the two syrup variants. […] Specifically, the unsweetened cola beverage samples were made first in sample bottles. Then, to each bottle 400 ppm of Reb D was carefully added in. […]

[5] = Table 2, Rebaudioside D 400 ppm, Rebaudioside M 400 ppm
[6] = Table 3, HFCS-55 11.7%, rebaudioside M 400 ppm

Compound: COC(=O)[C@H](Cc1ccccc1)NC(=O)[C@@H](N)CC(=O)O [Aspartame, reference compound] (H-Asp-Phe-OMe)
- Sweetness (score) [1, 5]: 6.39
- Sweetness (score) [1, 6]: 6.30

Compound: C=C1C[C@@]23CC[C@H]4[C@@](C)(CCC[C@@]4(C)C(=O)O[C@@H]4O[C@H](CO)[C@@H](O)[C@H](O[C@@H]5O[C@H](CO)[C@@H](O)[C@H](O)[C@H]5O)[C@H]4O[C@@H]4O[C@H](CO)[C@@H](O)[C@H](O)[C@H]4O)[C@@H]2CC[C@]1(O[C@@H]1O[C@H](CO)[C@@H](O)[C@H](O[C@@H]2O[C@H](CO)[C@@H](O)[C@H](O)[C@H]2O)[C@H]1O[C@@H]1O[C@H](CO)[C@@H](O)[C@H](O)[C@H]1O)C3 [Rebaudioside M, rebaudioside M]
- Sweetness (score) [1, 5]: 7.58
- Sweetness (score) [1, 6]: 8.00
- Sweetness relative to other sweeteners ([1]; conclusion from Table 2 and Table 3, 400 ppm in acidified water): significantly sweeter than aspartame and rebaudioside D
- Sweetness intensity relative to Reb A ([2]; in vivo): significantly higher than Reb A
- Bitterness relative to the same concentration of rebaudioside A ([2]; otherwise identical acidic aqueous carbonated beverages): significantly lower bitterness
- Thermo-stability [3]: good thermo-stability

Compound: C=C1C[C@@]23CC[C@H]4[C@@](C)(CCC[C@@]4(C)C(=O)O[C@@H]4O[C@H](CO)[C@@H](O)[C@H](O)[C@H]4O[C@@H]4O[C@H](CO)[C@@H](O)[C@H](O)[C@H]4O)[C@@H]2CC[C@]1(O[C@@H]1O[C@H](CO)[C@@H](O)[C@H](O[C@@H]2O[C@H](CO)[C@@H](O)[C@H](O)[C@H]2O)[C@H]1O[C@@H]1O[C@H](CO)[C@@H](O)[C@H](O)[C@H]1O)C3 [Rebaudioside D, rebaudioside D, reference compound]
- Solubility [4]: poor solubility
- Sweetness (score) [1, 5]: 6.97
